US6723716B1, “7-acylamino-3-heteroarylthio-3-cephem carboxylic acid antibiotics and prodrugs thereof” (Essential Therapeutics, Inc., priority 1999, dated 2004)
Converted amounts (≈) assume the structure as drawn.

Tests used:
E. coli ATCC25992 = assay: Broth microdilution MIC (NCCLS); format: cell-based; conditions: Escherichia coli
Procedure: (§1) Compounds were evaluated for antimicrobial activity against a panel of bacterial strains using a broth microdilution assay performed as recommended by the NCCLS (1). The minimum inhibitory concentration (MIC) was defined as the lowest concentration of drug which prevented the growth of the bacteria.
(§2) For this primary panel, the assay was performed in Mueller-Hinton Broth (MHB) with a final bacterial inoculum of 5×10^5 CFU/mL (from an early-log phase culture) and a final volume of 100 μL. Control drugs, including imipenem, vancomycin, Penicillin G, dicloxacillin (vs. MSSA ATCC29213 only), and new compounds were prepared at a concentration equivalent to 2-fold the desired final concentration. Dilution of compounds were prepared directly in the plates by serial 2-fold dilution using a multichannel pipette. Positive and negative growth control were included in each plate.
(§3) The bacterial inocula were prepared as follows. For each strain one isolated colony was used to inoculate a volume of 8 mL of Mueller-Hinton broth and these cultures were incubated overnight (20 h) at 35° C. in a shaking incubator. At the exception of Enterococcus strains, culture were then diluted 1:10 and allowed to grow for an additional one hour at 35° C. in a shaking incubator. The inocula were prepared by diluting the early log-phase (1 h) cultures 1:1000 with fresh Mueller-Hinton broth. E. faecium and E. faecalis were prepared by diluting overnight cultures 1:333 and 1:666, respectively, with fresh Mueller-Hinton broth. A volume of 50 μL of the inocula was added to each well. […] The exact inocula were determined by applying 10 μL of 10-fold serial dilution of the bacterial suspensions on TSA. After overnight incubation at 35° C., colony forming units were manually counted.
(§4) Microtiter plates were incubated during 24 h at 35° C. and were read using a microtiterplate reader (Molecular Devices) at 650 nm as well as by visual observation using a microtiterplate reading mirror.

E. faecalis ATCC 29212 = assay: Broth microdilution MIC (NCCLS); format: cell-based; conditions: Enterococcus faecalis, ATCC29212
Procedure: as §1, §2, §3, §4

E. faecalis VanB (Van^R) = assay: Broth microdilution MIC (NCCLS); format: cell-based; conditions: Enterococcus faecalis
Procedure: as §1, §2, §3, §4

E. faecium ATCC 35667 = assay: Broth microdilution MIC (NCCLS); format: cell-based; conditions: Enterococcus faecium, ATCC35667
Procedure: as §1, §2, §3, §4

[1] = test system: S. aureus 76 (Meth^R)(lac^+); assay: Broth microdilution MIC (NCCLS); format: cell-based; conditions: Staphylococcus aureus
Procedure: as §1, §2, §3, §4

[2] = test system: S. aureus ATCC 13709 (Meth^S); assay: Broth microdilution MIC (NCCLS); format: cell-based; conditions: Staphylococcus aureus, ATCC13709, S. aureus ATCC 13709 (Meth^S); read-out: MIC
Procedure: as §1, §2, §3, §4

S. aureus ATCC 29213 = assay: Broth microdilution MIC (NCCLS); format: cell-based; conditions: Staphylococcus aureus, ATCC29213; S. aureus ATCC 29213; Mueller-Hinton broth, 24 h at 35° C.; read-out: MIC
Procedure: as §1, §2, §3, §4

[3] = test system: S. aureus ATCC 33593 (Meth^R); assay: Broth microdilution MIC (NCCLS); format: cell-based; conditions: Staphylococcus aureus, ATCC33593
Procedure: as §1, §2, §3, §4

[4] = test system: S. aureus PC1 (Meth^S)(lac^+); assay: Broth microdilution MIC (NCCLS); format: cell-based; conditions: Staphylococcus aureus
Procedure: as §1, §2, §3, §4

[5] = test system: S. aureus Spain #356 (Meth^R); assay: Broth microdilution MIC (NCCLS); format: cell-based; conditions: Staphylococcus aureus, 24 h
Procedure: as §1, §2, §3, §4

S. aureus ATCC29213 = assay: Human serum binding effect: MIC with and without human serum; format: cell-based, Staphylococcus aureus; conditions: 1:1 human serum:MHB
Procedure: The approximate measurement of the degree of binding of the compound to human serum proteins can be achieved by determination of the effect of the addition of human serum to the medium in which the MIC values against a selected bacterial strain is determined. The ratio of the MIC value obtained in presence of added human serum to the MIC value determined without serum addition was used as a measure of serum binding and the results of such determination are presented below in Table 2.
In addition to the standard MIC determination described above, the staphylococcal strain ATCC29213 is also tested in a ratio 1:1, human serum:MHB to obtain a preliminary estimate of the bioactivity of test compounds in serum: The assay was performed in Human Serum and Mueller-Hinton Broth (HSMHB) with a final bacterial inoculum of 1×10^6 CFU/mL (from an early-log phase culture) and a final volume of 100 μL. Control drugs, including imipenem, vancomycin, dicloxacillin, and new compounds were prepared in double-concentrated Mueller-Hinton broth at a concentration equivalent to 4-fold the desired final concentration. Dilution of compounds were prepared directly in the plates by serial 2-fold dilution in double-concentrated Mueller-Hinton using a multichannel pipette. Positive and negative growth controls were included in each plate. […] The inoculum was prepared by diluting the early log-phase (1 h) culture 1:100 with fresh double-concentrated Mueller-Hinton broth. A volume of 25 μL of the inoculum was added to each well. […] The exact inoculum was determined by applying 10 μl of 10-fold serial dilution of the bacterial suspension on TSA. After overnight incubation at 35° C., colony forming units were manually counted.

E. faecium VanA (Van^R) = assay: Broth microdilution MIC (NCCLS); format: cell-based; conditions: Enterococcus faecium
Procedure: as §1, §2, §3, §4

P. aeruginosa ATCC 27853 = assay: Broth microdilution MIC (NCCLS); format: cell-based; conditions: Pseudomonas aeruginosa, ATCC27853
Procedure: as §1, §2, §3, §4

[6] = test system: S. haemolyticus 05 (Meth^R); assay: Broth microdilution MIC (NCCLS); format: cell-based; conditions: Staphylococcus haemolyticus
Procedure: as §1, §2, §3, §4

E. faecium A491 (Amp^R) = assay: Broth microdilution MIC (NCCLS); format: cell-based; conditions: Enterococcus faecium
Procedure: as §1, §2, §3, §4

[7] = test system: S. aureus Col (Meth^R)(lac^−); assay: Broth microdilution MIC (NCCLS); format: cell-based; conditions: Staphylococcus aureus
Procedure: as §1, §2, §3, §4

[8] = In vitro stability of compounds in rat serum; format: in vitro ADME; conditions: Table 2 data
Procedure: In general, compounds from the class of 7-acylamino-3-heteroarylthio-3-cephem carboxylic acids have higher chemical reactivity and lower stability towards chemical or enzymatic decomposition than most typical cephalosporins. […] Results shown in Table 2 represent percentage loss of the initial amount of cephalosporin compound upon 60 min incubation in rat serum.
Procedure for measuring degree of degradation of cephalosporin compounds in rat serum was as follows:
Fresh control rat serum (heparinized and stored frozen) is preincubated at 37° C. for 15 min in a shaking water bath. pH is measured using test strips. 25 μL of a 2 mg/mL solution cephalosporin compound (in water) of is then added to each matrix to make 1000 μL. Solutions were incubated at 37° C. 100 ul of solution was taken out at time=0, 15, 30, and 60 min post dose and added 200 μL 4% trichloroacetic acid, vortexed, and centrifuged for 10 min at 14,000 rpm in an Eppendorf microcentrifuge. 25 μL of each supernatant was injected onto HPLC. Experiment was repeated using 25 μL of a 0.2 mg/mL cephalosporin compound. Degradation is measured as the percentage of HPLC peak area at time t relative to peak area at time 0.
HPLC conditions: Beckman Ultrasphere C18 column. 5 u. 4.6 mm×25 cm. 1 mL/min of 95% 0.1 M ammonium acetate, pH 6, 5% ACN going to 75% buffer/organic over 20 min. UV monitored at 254 and 280 nm.

[9] = test system: S. aureus ATCC 13709 (Smith diffuse); assay: Murine lethal bacteremic peritonitis (septicemia) efficacy; format: in vivo, mice; conditions: Staphylococcus aureus, ATCC13709, sc, read-out: Efficacy in murine septicemia % survival
Procedure: 10 mice/group were injected intraperitoneally with 2.98×10^7 cfu S. aureus ATCC 13709 (Smith diffuse) and treated at 0 and 2 hrs post-challenge with serial two-fold doses of new cephalosporin antibiotic, imipenem and vancomycin subcutaneously in order to determine the ED50. Male Swiss-Webster mice weighing originally 24.2-26.1 g were obtained from Charles Rivers Labs, Hollister, Calif. Mice were housed 10 per cage and given free access to water and mouse chow.
Staphylococcus aureus ATCC 13709 (Smith diffuse) was grown overnight at 37° C. in Brain-heart Infusion broth (BHIB). The following morning, it was subcultured to fresh BHIB and incubated for 4-5 h at 37° C. The log-phase growth cells were washed once with physiological saline and adjusted to the desired concentration by correlation of absorbency at OD 600 nm with predetermined plate counts (NCCLS, 1994). The cell suspension was mixed with an equal volume of sterile 14% hog-gastric mucin (2). Inoculum was kept in an ice bath until used (<1 h).
Mice were challenged via an injection of 0.5 mL bacterial suspension intraperitoneally. The bacterial challenge was 2.98×10^7 cfu/mouse.
Imipenem (Primaxin IV; Lot 7294A), vancomycin (Vancocin; Lot 8MU60W), and new cephalosporin antibiotic were prepared by serial two-fold dilutions to concentrations of 0.078-0.005 mg/mL, 1.2-0.075 mg/mL, 0.3-0.02 mg/mL, 0.3-0.02 mg/mL and 0.3-0.02 mg/mL respectively in sterile water (1). All antibiotics were administered subcutaneously in 0.1 mL volumes at 0 and 2 hours post-challenge. Concentrations of all compounds are based on the weight of the bioactive ingredients.
The 50% effective dose (ED50) was calculated by the probit method (3) utilizing a program entitled Probit (Nycomed-Salutar).

SMILES	MIC (E. coli ATCC25992)	MIC (E. faecalis ATCC 29212)	MIC (E. faecalis VanB (Van^R))	MIC (E. faecium ATCC 35667)	MIC [1]	MIC [2]	MIC (S. aureus ATCC 29213)	MIC [3]	MIC [4]	MIC [5]	Human serum binding effect (ratio of MIC value determined with and without human serum added) (S. aureus ATCC29213)	MIC (E. faecium VanA (Van^R))	MIC (P. aeruginosa ATCC 27853)	MIC [6]	other results
NCCSCc1csc(SC2=C(C(=O)O)N3C(=O)[C@@H](NC(=O)/C(=N\O)c4cccc(N)n4)[C@H]3SC2)n1 [Cmpd 4, (7R)-7-[(Z)-2-(2-aminopyrid-6-yl)-2-(hydroxyimino)acetamido]-3-[4-(2-aminoethylthiomethyl)-1,3-thiazol-2-ylthio]-3-cephem-4-carboxylic acid]	4 µg/mL (≈ 7.05 µM)	0.25 µg/mL (≈ 0.44 µM)	0.5 µg/mL (≈ 0.881 µM)	0.25 µg/mL (≈ 0.44 µM)	2 µg/mL (≈ 3.52 µM)	0.13 µg/mL (≈ 0.229 µM)	0.13 µg/mL (≈ 0.229 µM)	1 µg/mL (≈ 1.76 µM)	0.13 µg/mL (≈ 0.229 µM)	2 µg/mL (≈ 3.52 µM)	3	–	–	–	–
Cc1nc(CSCCN)c(SC2=C(C(=O)O)N3C(=O)[C@@H](NC(=O)/C(=N\O)c4cccc(N)n4)[C@H]3SC2)s1 [Cmpd 2, (7R)-7-[(Z)-2-(2-aminopyrid-6-yl)-2-(hydroxyimino)acetamido]-3-[4-(2-aminoethylthiomethyl)-2-methyl-1,3-thiazol-5-ylthio]-3-cephem-4-carboxylic acid]	32 µg/mL (≈ 55 µM)	0.25 µg/mL (≈ 0.43 µM)	1 µg/mL (≈ 1.72 µM)	4 µg/mL (≈ 6.88 µM)	4 µg/mL (≈ 6.88 µM)	0.13 µg/mL (≈ 0.223 µM)	0.25 µg/mL (≈ 0.43 µM)	–	0.25 µg/mL (≈ 0.43 µM)	2 µg/mL (≈ 3.44 µM)	4	4 µg/mL (≈ 6.88 µM)	> 32 µg/mL	4 µg/mL (≈ 6.88 µM)	–
NCCSc1nccnc1SC1=C(C(=O)O)N2C(=O)C(NC(=O)/C(=N\O)c3cccc(N)n3)C2SC1 (centres unmarked) [Cmpd 7]	4 µg/mL (≈ 7.29 µM)	2 µg/mL (≈ 3.65 µM)	4 µg/mL (≈ 7.29 µM)	8 µg/mL (≈ 14.6 µM)	2 µg/mL (≈ 3.65 µM)	0.25 µg/mL (≈ 0.456 µM)	0.25 µg/mL (≈ 0.456 µM)	2 µg/mL (≈ 3.65 µM)	0.25 µg/mL (≈ 0.456 µM)	2 µg/mL (≈ 3.65 µM)	–	8 µg/mL (≈ 14.6 µM)	> 32 µg/mL	2 µg/mL (≈ 3.65 µM)	MIC (E. faecium A491 (Amp^R)): > 32 µg/mL; MIC [7]: 2 µg/mL (≈ 3.65 µM)
NCCSCc1ccncc1SC1=C(C(=O)O)N2C(=O)[C@@H](NC(=O)/C(=N\O)c3nsc(N)n3)[C@H]2SC1 [Cmpd 27, (7R)-7-[(Z)-2-(5-amino-1,2,4-thiadiazol-3-yl)-2-(hydroxyimino)acetamido]-3-[4-(2-aminoethylthiomethyl)pyrid-3-ylthio]-3-cephem-4-carboxylic acid]	–	–	–	–	–	0.25 µg/mL (≈ 0.44 µM)	–	–	–	–	4	–	–	–	stability of compounds in rat serum [8]: improved stability
NCCSc1nnc(SC2=C(C(=O)O)N3C(=O)[C@@H](NC(=O)/C(=N\O)c4nc(N)sc4Cl)[C@H]3SC2)s1 [Cmpd 1, (7R)-7-[(Z)-2-(2-amino-5-chlorothiazol-4-yl)-2-(hydroxyimino)acetamido]-3-(2-aminoethylthio-1,3,4-thiadiazol-5-ylthio)-3-cephem-4-carboxylic acid]	0.5 µg/mL (≈ 0.84 µM)	–	0.25 µg/mL (≈ 0.42 µM)	0.5 µg/mL (≈ 0.84 µM)	–	0.13 µg/mL (≈ 0.218 µM)	–	1 µg/mL (≈ 1.68 µM)	0.25 µg/mL (≈ 0.42 µM)	1 µg/mL (≈ 1.68 µM)	64	2 µg/mL (≈ 3.36 µM)	–	1 µg/mL (≈ 1.68 µM)	–
C[C@@H](O)[C@H]1C(=O)N2C(C(=O)O)=C(SCCN=CN)C[C@H]12 [Imipenem, reference compound]	–	–	–	–	–	0.008 µg/mL (≈ 0.0267 µM)	–	–	–	–	2	–	–	–	responders at 0.039 mg/kg ([9]; dose 0.039 mg/kg s.c. at 0 and 2 h post-challenge): 20%; responders at 0.078 mg/kg ([9]; dose 0.078 mg/kg s.c. at 0 and 2 h post-challenge): 40%; responders at 0.156 mg/kg ([9]; dose 0.156 mg/kg s.c. at 0 and 2 h post-challenge): 100%; responders at 0.312 mg/kg ([9]; dose 0.312 mg/kg s.c. at 0 and 2 h post-challenge): 100%; responders at 0.625 mg/kg ([9]; dose 0.625 mg/kg s.c. at 0 and 2 h post-challenge): 100%
